Reference: the NIST ThermoML archive (doi:10.1021/je900387e)

Experiment: xn = mol fraction of the nth substance listed
Conditions: Liquid, Pycnometric method

CCCCBr [1-bromobutane] + O=C=O
Conditions	mass density [kg/m3]
322.7 K, 11600 kPa, x1 = 0.0683	826
322.7 K, 11640 kPa, x1 = 0.1495	987
322.7 K, 11680 kPa, x1 = 0.0989	884
322.7 K, 11910 kPa, x1 = 0.0461	797
322.7 K, 11910 kPa, x1 = 0.0683	832
322.7 K, 11990 kPa, x1 = 0.1495	990
322.7 K, 12130 kPa, x1 = 0.0989	890
322.7 K, 12220 kPa, x1 = 0.0683	838
322.7 K, 12290 kPa, x1 = 0.1495	994
322.7 K, 12570 kPa, x1 = 0.0683	845
322.7 K, 12610 kPa, x1 = 0.0989	897
322.7 K, 12640 kPa, x1 = 0.0461	814
322.7 K, 12660 kPa, x1 = 0.1495	997
322.7 K, 12900 kPa, x1 = 0.0683	850
322.7 K, 13010 kPa, x1 = 0.1495	1000
322.7 K, 13110 kPa, x1 = 0.0989	903
322.7 K, 13210 kPa, x1 = 0.0461	826
322.7 K, 13280 kPa, x1 = 0.0683	857
322.7 K, 13490 kPa, x1 = 0.1495	1004
322.7 K, 13640 kPa, x1 = 0.0989	910
322.7 K, 13730 kPa, x1 = 0.0683	864
322.7 K, 13820 kPa, x1 = 0.1495	1008
322.7 K, 13830 kPa, x1 = 0.0461	838
322.7 K, 13960 kPa, x1 = 0.0683	867
322.7 K, 14210 kPa, x1 = 0.0989	916
322.7 K, 14230 kPa, x1 = 0.1495	1011
322.7 K, 14620 kPa, x1 = 0.1495	1015
322.7 K, 14880 kPa, x1 = 0.0989	924
322.7 K, 15120 kPa, x1 = 0.1495	1018
322.7 K, 15160 kPa, x1 = 0.0989	926
327.6 K, 8820 kPa, x1 = 0.1495	922
327.6 K, 8950 kPa, x1 = 0.1495	924
327.6 K, 9080 kPa, x1 = 0.0245	359
327.6 K, 9100 kPa, x1 = 0.0989	786
327.6 K, 9110 kPa, x1 = 0.0245	362
327.6 K, 9140 kPa, x1 = 0.1495	927
327.6 K, 9170 kPa, x1 = 0.0245	369
327.6 K, 9220 kPa, x1 = 0.0245	375
327.6 K, 9230 kPa, x1 = 0.0989	791
327.6 K, 9270 kPa, x1 = 0.0245	382
327.6 K, 9330 kPa, x1 = 0.0245	389
327.6 K, 9340 kPa, x1 = 0.1495	930
327.6 K, 9350 kPa, x1 = 0.0683	677
327.6 K, 9360 kPa, x1 = 0.0461	555
327.6 K, 9380 kPa, x1 = 0.0245	396
327.6 K, 9380 kPa, x1 = 0.0461	559
327.6 K, 9380 kPa, x1 = 0.0683	680
327.6 K, 9390 kPa, x1 = 0.0461	563
327.6 K, 9390 kPa, x1 = 0.0989	796
327.6 K, 9420 kPa, x1 = 0.0245	401
327.6 K, 9430 kPa, x1 = 0.0461	569
327.6 K, 9460 kPa, x1 = 0.0245	406
327.6 K, 9470 kPa, x1 = 0.0461	577
327.6 K, 9470 kPa, x1 = 0.0683	688
327.6 K, 9490 kPa, x1 = 0.0461	584
327.6 K, 9520 kPa, x1 = 0.0245	414
327.6 K, 9520 kPa, x1 = 0.1495	933
327.6 K, 9540 kPa, x1 = 0.0989	801
327.6 K, 9560 kPa, x1 = 0.0461	591
327.6 K, 9570 kPa, x1 = 0.0683	696
327.6 K, 9580 kPa, x1 = 0.0245	423
327.6 K, 9650 kPa, x1 = 0.0245	431
327.6 K, 9650 kPa, x1 = 0.0461	599
327.6 K, 9700 kPa, x1 = 0.0683	705
327.6 K, 9700 kPa, x1 = 0.0989	806
327.6 K, 9710 kPa, x1 = 0.0461	606
327.6 K, 9710 kPa, x1 = 0.1495	936
327.6 K, 9720 kPa, x1 = 0.0245	440
327.6 K, 9760 kPa, x1 = 0.0461	615
327.6 K, 9790 kPa, x1 = 0.0245	449
327.6 K, 9830 kPa, x1 = 0.0461	623
327.6 K, 9830 kPa, x1 = 0.0683	714
327.6 K, 9860 kPa, x1 = 0.0245	459
327.6 K, 9890 kPa, x1 = 0.0989	811
327.6 K, 9890 kPa, x1 = 0.1495	939
327.6 K, 9920 kPa, x1 = 0.0461	631
327.6 K, 9950 kPa, x1 = 0.0245	469
327.6 K, 10000 kPa, x1 = 0.0683	723
327.6 K, 10010 kPa, x1 = 0.0461	640
327.6 K, 10030 kPa, x1 = 0.0245	480
327.6 K, 10050 kPa, x1 = 0.0245	484
327.6 K, 10060 kPa, x1 = 0.0245	486
327.6 K, 10070 kPa, x1 = 0.1495	942
327.6 K, 10080 kPa, x1 = 0.0989	817
327.6 K, 10120 kPa, x1 = 0.0461	649
327.6 K, 10190 kPa, x1 = 0.0683	733
327.6 K, 10240 kPa, x1 = 0.0461	658
327.6 K, 10290 kPa, x1 = 0.0989	822
327.6 K, 10310 kPa, x1 = 0.1495	945
327.6 K, 10360 kPa, x1 = 0.0461	668
327.6 K, 10380 kPa, x1 = 0.0683	742
327.6 K, 10500 kPa, x1 = 0.0461	678
327.6 K, 10510 kPa, x1 = 0.0989	828
327.6 K, 10560 kPa, x1 = 0.1495	949
327.6 K, 10630 kPa, x1 = 0.0683	752
327.6 K, 10660 kPa, x1 = 0.0461	688
327.6 K, 10730 kPa, x1 = 0.0989	833
327.6 K, 10780 kPa, x1 = 0.1495	951
327.6 K, 10840 kPa, x1 = 0.0461	698
327.6 K, 10920 kPa, x1 = 0.0683	762
327.6 K, 10990 kPa, x1 = 0.0461	706
327.6 K, 11000 kPa, x1 = 0.1495	954
327.6 K, 11060 kPa, x1 = 0.0989	839
327.6 K, 11240 kPa, x1 = 0.0683	773
327.6 K, 11280 kPa, x1 = 0.1495	958
327.6 K, 11310 kPa, x1 = 0.0989	845
327.6 K, 11520 kPa, x1 = 0.1495	961
327.6 K, 11590 kPa, x1 = 0.0683	783
327.6 K, 11620 kPa, x1 = 0.0989	851
327.6 K, 11790 kPa, x1 = 0.1495	964
327.6 K, 11960 kPa, x1 = 0.0989	857
327.6 K, 11990 kPa, x1 = 0.0683	794
327.6 K, 12050 kPa, x1 = 0.1495	967
327.6 K, 12310 kPa, x1 = 0.0989	862
327.6 K, 12370 kPa, x1 = 0.1495	970
327.6 K, 12460 kPa, x1 = 0.0683	805
327.6 K, 12670 kPa, x1 = 0.1495	974
327.6 K, 12710 kPa, x1 = 0.0989	869
327.6 K, 13000 kPa, x1 = 0.1495	977
327.6 K, 13040 kPa, x1 = 0.0683	817
327.6 K, 13110 kPa, x1 = 0.0989	875
327.6 K, 13350 kPa, x1 = 0.1495	981
327.6 K, 13520 kPa, x1 = 0.0989	880
327.6 K, 13650 kPa, x1 = 0.0683	829
327.6 K, 13660 kPa, x1 = 0.1495	984
327.6 K, 13960 kPa, x1 = 0.1495	987
327.6 K, 13980 kPa, x1 = 0.0989	887
327.6 K, 13990 kPa, x1 = 0.0683	835
327.6 K, 14320 kPa, x1 = 0.1495	990
327.6 K, 14470 kPa, x1 = 0.0989	893
327.6 K, 14690 kPa, x1 = 0.1495	993
327.6 K, 14740 kPa, x1 = 0.0683	848
327.6 K, 14960 kPa, x1 = 0.0683	851
327.6 K, 15000 kPa, x1 = 0.0989	900
327.6 K, 15090 kPa, x1 = 0.1495	997
332.4 K, 9170 kPa, x1 = 0.0245	317
332.4 K, 9200 kPa, x1 = 0.0245	319
332.4 K, 9250 kPa, x1 = 0.0245	323
332.4 K, 9300 kPa, x1 = 0.0245	328
332.4 K, 9350 kPa, x1 = 0.0245	332
332.4 K, 9350 kPa, x1 = 0.1495	896
332.4 K, 9400 kPa, x1 = 0.0245	336
332.4 K, 9440 kPa, x1 = 0.0245	340
332.4 K, 9490 kPa, x1 = 0.0245	345
332.4 K, 9540 kPa, x1 = 0.0245	349
332.4 K, 9580 kPa, x1 = 0.0245	354
332.4 K, 9580 kPa, x1 = 0.1495	900
332.4 K, 9640 kPa, x1 = 0.0245	359
332.4 K, 9670 kPa, x1 = 0.0989	750
332.4 K, 9690 kPa, x1 = 0.0245	364
332.4 K, 9740 kPa, x1 = 0.0245	369
332.4 K, 9760 kPa, x1 = 0.1495	903
332.4 K, 9780 kPa, x1 = 0.0989	755
332.4 K, 9790 kPa, x1 = 0.0245	375
332.4 K, 9810 kPa, x1 = 0.0461	512
332.4 K, 9830 kPa, x1 = 0.0461	516
332.4 K, 9840 kPa, x1 = 0.0245	380
332.4 K, 9840 kPa, x1 = 0.0683	622
332.4 K, 9870 kPa, x1 = 0.0683	625
332.4 K, 9890 kPa, x1 = 0.0461	521
332.4 K, 9890 kPa, x1 = 0.0989	759
332.4 K, 9890 kPa, x1 = 0.1495	906
332.4 K, 9900 kPa, x1 = 0.0245	386
332.4 K, 9900 kPa, x1 = 0.0683	629
332.4 K, 9930 kPa, x1 = 0.0461	527
332.4 K, 9950 kPa, x1 = 0.0245	392
332.4 K, 9960 kPa, x1 = 0.0683	636
332.4 K, 9970 kPa, x1 = 0.0461	533
332.4 K, 10000 kPa, x1 = 0.0683	640
332.4 K, 10000 kPa, x1 = 0.0989	764
332.4 K, 10010 kPa, x1 = 0.0245	398
332.4 K, 10020 kPa, x1 = 0.0245	399
332.4 K, 10020 kPa, x1 = 0.0461	539
332.4 K, 10040 kPa, x1 = 0.1495	909
332.4 K, 10060 kPa, x1 = 0.0461	546
332.4 K, 10070 kPa, x1 = 0.0683	647
332.4 K, 10110 kPa, x1 = 0.0989	769
332.4 K, 10120 kPa, x1 = 0.0461	552
332.4 K, 10150 kPa, x1 = 0.0683	654
332.4 K, 10180 kPa, x1 = 0.0461	559
332.4 K, 10190 kPa, x1 = 0.1495	912
332.4 K, 10240 kPa, x1 = 0.0461	566
332.4 K, 10240 kPa, x1 = 0.0683	662
332.4 K, 10240 kPa, x1 = 0.0989	774
332.4 K, 10300 kPa, x1 = 0.0461	573
332.4 K, 10340 kPa, x1 = 0.0683	670
332.4 K, 10370 kPa, x1 = 0.0461	580
332.4 K, 10370 kPa, x1 = 0.0989	778
